According to patent US11760773B2, “Small molecule drug conjugates of gemcitabine monophosphate” (MaveriX Oncology, Inc., priority 2018, dated 2023):
Read-outs that look alike come from different tables or passages of the source.

What was measured:
[1] = Comparative plasma PK of Int 1-4 versus gemcitabine in mouse (study a); assay type: in vivo; settings: CD-1 mice
[2] = Comparative plasma PK of Compound 1 versus Int 1-4 in male CD-1 mice (study b); assay type: in vivo; settings: male, CD-1, mouse, iv; for Cmax: read-out: Cmax; for Tmax: read-out: Tmax
Experimental: Objectives: to compare the plasma pharmacokinetics and stability of Compound 1 with its non-phosphorylated SMDC analog (Int 1-4) and in plasma following a single intravenous infusion administration of Compound 1 at 11.6 mg/kg and 23.2 mg/kg with Int 1-4 (formulation F1 & F2) at 10.0 mg/kg in male CD-1 mice
PK measurements: compare PK parameters C0, CL, Vdss, Cmax, tmax, t1/2, AUC(0-t), AUC(0-inf), MRT(0-t), MRT(0-inf) for Compound 1 and Int 1-4

[3] = Int 1-4 plasma PK in the male cynomolgus monkey (study f); assay type: in vivo; settings: for C0: read-out: C0; for MRT inf: read-out: MRT0-inf; for MRT last: read-out: MRT0-last; for Vd: read-out: Vdss
Experimental: Objectives: to compare the plasma pharmacokinetics and stability of Int 1-4 in plasma following single intravenous infusion administration of Int 1-4 at 5 mg/kg and 10 mg/kg in the male cynomolgus monkey
PK measurements: compare PK parameters C0, CL, Vdss, Cmax, tmax, t, AUC(0-t), AUC(0-inf), MRT(0-t), MRT(0-inf) for Int 1-4

[4] = Int 1-4 and gemcitabine comparative PK in male cynomolgus monkey (study g); assay type: in vivo; settings: for AUC(0-t) / C0 / clearance / half-life / AUC(0-inf) / MRT inf / MRT last / Vd: plasma, male cynomolgus monkey; for AUC(0-inf): read-out: AUC0-inf; for MRT inf: read-out: MRT0-inf; for MRT last: read-out: MRT0-last; for Vd: read-out: Vdss
Experimental: Objectives: to compare the plasma pharmacokinetics and stability of Int 1-4 versus gemcitabine in plasma following single intravenous infusion administration of Int 1-4 at 5 mg/kg and 10 mg/kg with equimolar gemcitabine at 2.65 mg/kg and 5.29 mg/kg in male cynomolgous monkeys
PK measurements: compare PK parameters C0, CL, Vdss, Cmax, tmax, t1/2, AUC(0-t), AUC(0-inf), MRT(0-t), MRT(0-inf) for Int 1-4 with gemcitabine

[5] = Compound 1 and gemcitabine plasma PK in the male cynomolgus monkey (study h); assay type: in vivo; settings: plasma, after iv Compound 1 5 mg/kg
Experimental: Objectives: to compare the plasma pharmacokinetics and stability of the Compound 1 with Int 1-4 and in plasma following a single intravenous infusion administration of Compound 1 at 5 mg/kg and 10 mg/kg with equimolar gemcitabine at 2.28 mg/kg in male cynomolgous monkeys.
PK measurements: compare PK parameters C0, CL, Vdss, Cmax, tmax, t1/2, AUC(0-t), AUC(0-inf), MRT(0-t), MRT(0-inf) for Compound 1 and Int 1-4 with gemcitabine.

[6] = Comparative PK of Int 1-4 versus gemcitabine in rat plasma (study i); assay type: in vivo, Sprague-Dawley rats; settings: Sprague-Dawley rat
Excerpt: PK measurements: compare PK parameters C0, CL, Vdss, Cmax, tmax, t1/2, AUC(0-t), AUC(0-inf), MRT(0-t), MRT(0-inf) for Int 1-4 and gemcitabine.

[7] = mouse, plasma, after iv Int 1-4 9.4 mg/kg
[8] = 10 mg/kg, after iv Int 1-4 10.0 mg/kg, Formulation 1
[9] = 10 mg/kg, after iv Int 1-4 10.0 mg/kg, Formulation 2
[10] = 11.6 mg/kg, after iv Compound 1 11.6 mg/kg
[11] = 23.2 mg/kg, after iv Compound 1 23.2 mg/kg
[12] = after iv Int 1-4 5 mg/kg (study f)
[13] = after iv Int 1-4 10 mg/kg (study f)
[14] = after iv Int 1-4 5 mg/kg (study g)
[15] = after iv Int 1-4 10 mg/kg (study g)
[16] = plasma, after iv Int 1-4 10.0 mg/kg

SMILES: COc1cc(OC)c2oc(COC(=O)Nc3ccn([C@@H]4O[C@H](CO)[C@@H](O)C4(F)F)c(=O)n3)cc2c1 [Int 1-4, (5,7-di(methoxy)benzofuran-2-yl)methyl (1-((2R,4R,5R)-3,3-difluoro-4-hydroxy-5-(hydroxymethyl)tetrahydrofuran-2-yl)-2-oxo-1,2-dihydropyrimidin-4-yl)carbamate]
- plasma clearance and tissue uptake ([1]; after iv Int 1-4): quickly clears the plasma
- AUC(0-t) [1, 7]: 4980 ng·h/mL
- C0 [1, 7]: 78 µg/mL
- clearance [1, 7]: 27.1 mL/min/kg
- half-life [1, 7]: 63.6 min
- AUC(0-inf) ([1]; mouse, plasma, after iv Int 1-4 9.4 mg/kg, read-out: AUC0-inf): 5000 ng·h/mL
- MRT inf ([1]; mouse, plasma, after iv Int 1-4 9.4 mg/kg, read-out: MRT0-inf): 20.8 min
- MRT last ([1]; mouse, plasma, after iv Int 1-4 9.4 mg/kg, read-out: MRT0-last): 19.7 min
- Vd ([1]; mouse, plasma, after iv Int 1-4 9.4 mg/kg, read-out: Vdss): 0.566 L/kg
- AUC0-inf/AUC0-last ([1]; plasma, after iv Int 1-4 9.4 mg/kg): 100%
- AUC(0-t) [2, 8]: 3620 ng·h/mL
- C0 [2, 8]: 33.8 µg/mL
- clearance [2, 8]: 48.3 mL/min/kg
- half-life [2, 8]: 70.8 min
- AUC(0-inf) ([2]; 10 mg/kg, after iv Int 1-4 10.0 mg/kg, Formulation 1, read-out: AUC0-inf): 3630 ng·h/mL
- MRT inf ([2]; 10 mg/kg, after iv Int 1-4 10.0 mg/kg, Formulation 1, read-out: MRT0-inf): 45.4 min
- MRT last ([2]; 10 mg/kg, after iv Int 1-4 10.0 mg/kg, Formulation 1, read-out: MRT0-last): 43.4 min
- Vd ([2]; 10 mg/kg, after iv Int 1-4 10.0 mg/kg, Formulation 1, read-out: Vdss): 2.01 L/kg
- AUC(0-t) [2, 9]: 4210 ng·h/mL
- C0 [2, 9]: 43 µg/mL
- clearance [2, 9]: 38.9 mL/min/kg
- half-life [2, 9]: 109 min
- AUC(0-inf) ([2]; 10 mg/kg, after iv Int 1-4 10.0 mg/kg, Formulation 2, read-out: AUC0-inf): 4290 ng·h/mL
- MRT inf ([2]; 10 mg/kg, after iv Int 1-4 10.0 mg/kg, Formulation 2, read-out: MRT0-inf): 59 min
- MRT last ([2]; 10 mg/kg, after iv Int 1-4 10.0 mg/kg, Formulation 2, read-out: MRT0-last): 47.8 min
- Vd ([2]; 10 mg/kg, after iv Int 1-4 10.0 mg/kg, Formulation 2, read-out: Vdss): 2.3 L/kg
- AUC(0-t) [2, 10]: 2570 ng·h/mL
- half-life [2, 10]: 58.4 min
- AUC(0-inf) ([2]; 11.6 mg/kg, after iv Compound 1 11.6 mg/kg, read-out: AUC0-inf): 2610 ng·h/mL
- Cmax [2, 10]: 20 µg/mL
- MRT inf ([2]; 11.6 mg/kg, after iv Compound 1 11.6 mg/kg, read-out: MRT0-inf): 40.4 min
- MRT last ([2]; 11.6 mg/kg, after iv Compound 1 11.6 mg/kg, read-out: MRT0-last): 33.2 min
- Tmax [2, 10]: 1.5 min
- AUC(0-t) [2, 11]: 6370 ng·h/mL
- half-life [2, 11]: 55.8 min
- AUC(0-inf) ([2]; 23.2 mg/kg, after iv Compound 1 23.2 mg/kg, read-out: AUC0-inf): 6380 ng·h/mL
- Cmax [2, 11]: 29.9 µg/mL
- MRT inf ([2]; 23.2 mg/kg, after iv Compound 1 23.2 mg/kg, read-out: MRT0-inf): 47.6 min
- MRT last ([2]; 23.2 mg/kg, after iv Compound 1 23.2 mg/kg, read-out: MRT0-last): 46.7 min
- Tmax [2, 11]: 1.5 min
- AUC(0-inf) [3, 12]: 5470 ng·h/mL
- AUC(0-t) [3, 12]: 5460 ng·h/mL
- clearance [3, 12]: 15.4 mL/min/kg
- half-life [3, 12]: 43.8 min
- C0 [3, 12]: 81 µg/mL
- MRT inf [3, 12]: 19.8 min
- MRT last [3, 12]: 18.6 min
- Vd [3, 12]: 0.301 L/kg
- AUC(0-inf) [3, 13]: 17400 ng·h/mL
- AUC(0-t) [3, 13]: 17400 ng·h/mL
- clearance [3, 13]: 9.65 mL/min/kg
- half-life [3, 13]: 55.8 min
- C0 [3, 13]: 166 µg/mL
- MRT inf [3, 13]: 26.4 min
- MRT last [3, 13]: 25.8 min
- Vd [3, 13]: 0.253 L/kg
- fold longer half-life than gemcitabine ([4]; male cynomolgus monkey plasma): ~50 fold
- AUC(0-t) [4, 14]: 5950 ng·h/mL
- C0 [4, 14]: 99.7 µg/mL
- clearance [4, 14]: 14.6 mL/min/kg
- half-life [4, 14]: 45 min
- AUC(0-inf) [4, 14]: 5960 ng·h/mL
- MRT inf [4, 14]: 19.8 min
- MRT last [4, 14]: 19.2 min
- Vd [4, 14]: 0.287 L/kg
- AUC(0-t) [4, 15]: 11900 ng·h/mL
- C0 [4, 15]: 146 µg/mL
- clearance [4, 15]: 15 mL/min/kg
- half-life [4, 15]: 59.4 min
- AUC(0-inf) [4, 15]: 11900 ng·h/mL
- MRT inf [4, 15]: 23.4 min
- MRT last [4, 15]: 22.8 min
- Vd [4, 15]: 0.349 L/kg
- AUC(0-t) [5]: 4380 ng·h/mL
- half-life [5]: 45.6 min
- AUC(0-inf) ([5]; read-out: AUC0-inf): 4400 ng·h/mL
- MRT inf ([5]; read-out: MRT0-inf): 22.2 min
- MRT last ([5]; read-out: MRT0-last): 21.6 min
- stability in the rat (based on Cmax and AUC of free gemcitabine in plasma) ([6]; iv Int 1-4): unstable
- half-life ([6]; Sprague-Dawley, rat, plasma, iv, 10 mg/kg, plasma, after iv Int 1-4 10.0 mg/kg): 19.1 min
- AUC0-inf/AUC0-last [6, 16]: 101%
- AUC(0-inf) [6, 16]: 2010 ng·h/mL
- AUC(0-t) [6, 16]: 1990 ng·h/mL
- C0 [6, 16]: 29.4 µg/mL
- clearance [6, 16]: 82.3 mL/min/kg
- MRT inf ([6]; plasma, after iv Int 1-4 10.0 mg/kg, read-out: MRT0-inf): 11.1 min
- MRT last ([6]; plasma, after iv Int 1-4 10.0 mg/kg, read-out: MRT0-last): 10.3 min
- Vd ([6]; plasma, after iv Int 1-4 10.0 mg/kg, read-out: Vdss): 0.905 L/kg
